Consider one compound from ChEMBL document CHEMBL5352415, “Discovery of new macrophage M2 polarization modulators as multiple sclerosis treatment agents that enable the inflammation microenvironment remodeling” (Eur J Med Chem, 2022).

For orientation: IC50 means the concentration that inhibits the measured activity by half. As a reminder, the Tmax is the time from dosing to the highest level. By half-life is commonly meant the time needed for the level to fall by half in the phase considered. By AUC(0-inf) is commonly meant total exposure, with the tail of the curve extrapolated.

The source made the active and inactive calls.

The target in series [1] is RAC-beta serine/threonine-protein kinase (Homo sapiens, UniProt P31751). Put plainly: Inhibition of AKT2 (unknown origin). It counts as binding.
RAC-beta serine/threonine-protein kinase, sequence (P31751 whole entry): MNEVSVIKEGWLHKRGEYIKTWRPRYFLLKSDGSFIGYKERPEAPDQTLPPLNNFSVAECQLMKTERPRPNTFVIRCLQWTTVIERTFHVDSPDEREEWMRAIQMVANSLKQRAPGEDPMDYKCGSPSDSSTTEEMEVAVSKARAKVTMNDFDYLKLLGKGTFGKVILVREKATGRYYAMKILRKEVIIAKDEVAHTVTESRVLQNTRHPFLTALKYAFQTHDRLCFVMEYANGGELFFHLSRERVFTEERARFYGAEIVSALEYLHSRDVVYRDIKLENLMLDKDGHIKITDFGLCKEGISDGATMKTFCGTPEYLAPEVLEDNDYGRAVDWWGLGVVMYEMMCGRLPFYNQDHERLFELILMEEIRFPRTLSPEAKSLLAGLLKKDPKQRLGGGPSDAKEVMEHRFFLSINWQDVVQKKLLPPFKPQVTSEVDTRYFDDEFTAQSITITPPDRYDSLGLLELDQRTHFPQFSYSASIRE
Series [2] in a line: Tmax in ICR mouse at 50 mg/kg, po measured upto 24 hrs by LC/MS analysis. It counts as ADME, organism-based. The following applies: in vivo.
The nature of series [3]: Half-life in ICR mouse at 50 mg/kg, po measured upto 24 hrs by LC/MS analysis. It counts as ADME, organism-based. Conditions: in vivo.
A short description of series [4]: AUC(0 to infinity) in ICR mouse at 50 mg/kg, po measured upto 24 hrs by LC/MS analysis. It counts as ADME, organism-based. On the set-up: dose 50 mg/kg, time < 24 hrs, route po. The following applies: in vivo.
The test system of series [5] is Mus musculus. The series can be described thus: Anti-inflammatory activity in MOG (35 to 55 residues)/pertussis toxin-induced experimental autoimmune encephalomyelitis C57BL/6 mouse model assessed as decrease in disease progression by measuring clinical score at 75 to 150 mg/kg, po administered once daily starting from day 7 to day 20. It counts as functional, organism-based. The following applies: dose 75-150 mg/kg, time 14.0 day.

Series [6] deals with Mus musculus. Put plainly: Anti-inflammatory activity in MOG (35 to 55 residues)/pertussis toxin-induced experimental autoimmune encephalomyelitis C57BL/6 mouse model assessed as attenuation of demyelination in spinal cord at 75 to 150 mg/kg, po administered once daily starting from day 7 to day 20 by luxol fast blue staining based analysis. Conditions: dose 75-150 mg/kg, time 14.0 day. It counts as functional, organism-based.

For series [7], the system named is Mus musculus. The series can be described thus: Anti-inflammatory activity in MOG (35 to 55 residues)/pertussis toxin-induced experimental autoimmune encephalomyelitis C57BL/6 mouse model assessed as M2 macrophage polarization by measuring increase in Mrc1 mRNA expression in CNS at 75 to 150 mg/kg, po administered once daily starting from day 7 to day 20 by qRT-PCR analysis. It counts as functional, organism-based. Conditions: dose 75-150 mg/kg, time 14.0 day. For orientation: Quantitative PCR measures a nucleic acid by following its amplification.

Series [8] relates to Mus musculus. Put plainly: Anti-inflammatory activity in MOG (35 to 55 residues)/pertussis toxin-induced experimental autoimmune encephalomyelitis C57BL/6 mouse model assessed as inhibition of M1 macrophage polarization by measuring decrease in Mcp1 mRNA expression in CNS administered orally once daily starting from day 7 to day 20 by qRT-PCR analysis. It counts as functional, organism-based. Conditions: dose 75-150 mg/kg, route po, time 14.0 day.

Series [9] has as its system Mus musculus. The series can be described thus: Anti-inflammatory activity in MOG (35 to 55 residues)/pertussis toxin-induced experimental autoimmune encephalomyelitis C57BL/6 mouse model assessed as inhibition of M1 macrophage polarization by measuring decrease in Inos mRNA expression in CNS administered orally once daily starting from day 7 to day 20 by qRT-PCR analysis. It counts as functional, organism-based. The following applies: dose 75-150 mg/kg, route po, time 14.0 day.

Series [10] concerns Mus musculus. Put plainly: Anti-inflammatory activity in MOG (35 to 55 residues)/pertussis toxin-induced experimental autoimmune encephalomyelitis C57BL/6 mouse model assessed as inhibition of M1 macrophage polarization by measuring decrease in interferon-gamma mRNA expression in CNS at 75 to 150 mg/kg, po administered once daily starting from day 7 to day 20 by qRT-PCR analysis. It counts as functional, organism-based. Conditions: dose 75-150 mg/kg, time 14.0 day.

Series [11] has as its system Mus musculus. Put plainly: Anti-inflammatory activity in MOG (35 to 55 residues)/pertussis toxin-induced experimental autoimmune encephalomyelitis C57BL/6 mouse model assessed as decrease in F4/80+ CD86+ M1 macrophage in spleen at 75 to 150 mg/kg, po administered once daily starting from day 7 to day 20 by flow cytometric analysis. It counts as functional, organism-based. The following applies: dose 75-150 mg/kg, time 14.0 day. A general note: A flow cytometer gives signals particle by particle.

Series [12] deals with Mus musculus. Put plainly: Anti-inflammatory activity in MOG (35 to 55 residues)/pertussis toxin-induced experimental autoimmune encephalomyelitis C57BL/6 mouse model assessed as increase in F4/80+ CD206+ M2 macrophage in DLN at 75 to 150 mg/kg, po administered once daily starting from day 7 to day 20 by flow cytometric analysis. It counts as functional. The following applies: dose 75-150 mg/kg, time 14 day.

The test system of series [13] is Mus musculus. The series can be described thus: Anti-inflammatory activity in MOG (35 to 55 residues)/pertussis toxin-induced experimental autoimmune encephalomyelitis C57BL/6 mouse model assessed as increase in F4/80+ CD206+ M2 macrophage in spleen at 75 to 150 mg/kg, po administered once daily starting from day 7 to day 20 by flow cytometric analysis. It counts as functional. Conditions: dose 75-150 mg/kg, time 14 day.

For series [14], the system named is Mus musculus. The series can be described thus: Anti-inflammatory activity in MOG (35 to 55 residues)/pertussis toxin-induced experimental autoimmune encephalomyelitis C57BL/6 mouse model assessed as inhibition of CD4+ T cell differentiation by measuring reduction in Th1 (IFN-gamma+) cells in DLN administered orally once daily starting from day 7 to day 20 by flow cytometric analysis. It counts as functional, organism-based. The following applies: dose 75-150 mg/kg, route po, time 14.0 day.

Series [15] concerns Mus musculus. Put plainly: Anti-inflammatory activity in MOG (35 to 55 residues)/pertussis toxin-induced experimental autoimmune encephalomyelitis C57BL/6 mouse model assessed as T cell activation by measuring decrease in CD44hi CD62Llo T cells in DLN at 75 to 150 mg/kg, po administered once daily starting from day 7 to day 20 by flow cytometric analysis. It counts as functional. On the set-up: scale not given: the % may be the effect or the level left. The following applies: dose 75-150 mg/kg, time 14 day.

The test system of series [16] is Mus musculus. Put plainly: Anti-inflammatory activity in MOG (35 to 55 residues)/pertussis toxin-induced experimental autoimmune encephalomyelitis C57BL/6 mouse model assessed as inhibition of CD4+ T cell differentiation by measuring reduction in Th17 (Il-4+) cells in DLN administered orally once daily starting from day 7 to day 20 by flow cytometric analysis. It counts as functional, organism-based. The following applies: dose 75-150 mg/kg, route po, time 14.0 day.

Series [17] concerns Mus musculus. The series can be described thus: Anti-inflammatory activity in MOG (35 to 55 residues)/pertussis toxin-induced experimental autoimmune encephalomyelitis C57BL/6 mouse model assessed as inhibition of CD4+ T cell differentiation by measuring reduction in Th1 (IFN-gamma+) cells in spleen administered orally once daily starting from day 7 to day 20 by flow cytometric analysis. It counts as functional, organism-based. The following applies: dose 75-150 mg/kg, route po, time 14.0 day.

Series [18] deals with Mus musculus. Put plainly: Anti-inflammatory activity in MOG (35 to 55 residues)/pertussis toxin-induced experimental autoimmune encephalomyelitis C57BL/6 mouse model assessed as inhibition of CD4+ T cell differentiation by measuring reduction in Th17 (Il-4+) cells in spleen administered orally once daily starting from day 7 to day 20 by flow cytometric analysis. It counts as functional, organism-based. The following applies: dose 75-150 mg/kg, route po, time 14.0 day.

A short description of series [19]: Inhibition of M1 macrophage polarization in C57BL/6 mouse BMDM cells assessed as fold decrease in Inos gene level at 1 uM incubated for 24 hrs by qRT-PCR analysis (reference value: 1). It counts as functional.
Series [20] in a line: Inhibition of M1 macrophage polarization in C57BL/6 mouse BMDM cells assessed as fold change in IL-6 gene level at 1 uM incubated for 24 hrs by qRT-PCR analysis (reference value: 1). It counts as functional.
A short description of series [21]: Inhibition of M1 macrophage polarization in C57BL/6 mouse BMDM cells assessed as fold change in IL-1beta gene level at 1 uM incubated for 24 hrs by qRT-PCR analysis (reference value: 1). It counts as functional.
The subject of series [22] is BMDM. The series can be described thus: Inhibition of LPS-induced M1 macrophage polarization in C57BL/6 mouse BMDM cells assessed as decrease in Inos gene level preincubated with LPS for 24 hrs followed by compound addition and measured after 24 hrs by qRT-PCR analysis. It counts as functional, cell-based. Conditions: dose 0.05-2 µM.
In series [23] the target is T1, RAC-alpha serine/threonine-protein kinase (Mus musculus, UniProt P31750). The series can be described thus: Inhibition of Akt phosphorylation at Ser473 in C57BL/6 mouse BMDM cells at 50 to 500 nM incubated for 24 hrs by Western blot analysis. Conditions: 0.5 µM, dose 50-500 nM. It counts as cell-based.
T1 sequence (P31750 whole entry): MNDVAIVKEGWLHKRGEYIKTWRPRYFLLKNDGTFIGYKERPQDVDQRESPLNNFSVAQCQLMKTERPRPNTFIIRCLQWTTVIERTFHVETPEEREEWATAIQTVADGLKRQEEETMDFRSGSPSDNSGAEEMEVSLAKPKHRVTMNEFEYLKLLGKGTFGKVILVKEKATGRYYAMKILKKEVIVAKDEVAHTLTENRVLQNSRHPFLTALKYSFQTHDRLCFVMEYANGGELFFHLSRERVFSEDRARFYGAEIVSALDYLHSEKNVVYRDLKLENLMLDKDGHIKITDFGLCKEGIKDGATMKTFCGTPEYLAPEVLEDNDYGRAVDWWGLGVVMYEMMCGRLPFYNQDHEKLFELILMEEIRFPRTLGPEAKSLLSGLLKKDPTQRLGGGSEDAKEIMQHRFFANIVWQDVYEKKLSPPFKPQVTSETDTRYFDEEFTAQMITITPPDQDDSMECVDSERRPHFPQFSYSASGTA
Series [24] has as its target T1, RAC-alpha serine/threonine-protein kinase. The series can be described thus: Inhibition of LPS-induced Akt phosphorylation at Ser473 in C57BL/6 mouse BMDM cells at 50 to 500 nM incubated for 24 hrs by Western blot analysis. It counts as cell-based. The following applies: 0.5 µM, dose 50-500 nM. (In general: In western blotting, separated proteins are transferred to a membrane and probed.)

With `Cl.Cn1ncc(Br)c1-c1ccc(C(=O)N[C@@H]2CNCC[C@H]2c2ccc(F)c(F)c2)cc1C1CC1`, the IC50 in [1] was greater than 1 µM. Further, in series [2], the Tmax was 4 h. In [3], this compound showed a half-life of 13.7 h. The same compound showed a total exposure AUC(0-inf) in series [4] of 27.9 µg·h/mL. For the same compound, the result in series [5], in series [6], in series [7], in series [10] and in series [11] was Active. Moreover, the Activity result in series [8] is “Dose-Dependent Effect”; in series [9], “Dose-Dependent Effect”; in [12], 10.6%; in [13], 12.4%; in series [14], “Dose-Dependent Effect”; in series [15], 29%. The Activity entry in series [16], in series [17] and in [18] was “Dose-Dependent Effect” each time. In addition, the “fold change (FC)” value in [19] amounted to 0.49; in series [20] it was 2.22; in series [21] it was 4.15. Moreover, in series [22], the inhibition result was “Dose-Dependent Effect”. For the same compound, the “inhibition (INH)” value in [23] and in [24] was “Not Active” in each case.
